Measured values from patent publication US5609749A, “Electrochemical assay method with novel p-phenylenediamine compound” (Mochida Pharmaceutical Co., Ltd., priority 1993, dated 1997).

Key:
Glucose oxidase (GOD) = target: T1, Glucose oxidase (GOD) (Aspergillus niger, UniProt P13006); assay: Electron transfer activity 1: GOD-glucose-compound, current at +300 mV; format: biochemical; details: +300 mV vs Ag/AgCl, pH 6.0
T1 construct: purchased Boehringer-Mannheim
Method: Measurement of electron transfer activities of TEPD, TCPD, THEPD, TDHPD, HTEPD, N,N'-BHPD, N,N-BHDPD, N,N'-BHDPD, and p-phenylenediamine derivatives having substituted amino group by reacting p-phenylenediamine with propyleneoxide--1
Glucose oxidase (GOD, manufactured by Boehringer-Mannheim) was dissolved in 0.1M phosphate buffer (pH 6.0) containing 0.1M NaCl to prepare 0M and 4.0×10^-4 M GOD solutions. Also, glucose (manufactured by Junsei Kagaku) was dissolved in the same buffer to prepare a 1.5M solution. In the same manner, each of the TEPD, TCPD, THEPD, TDHPD, HTEPD, N,N-BHDPD, N,N'-BHPD, N,N'-BHDPD, and p-phenylenediamine derivatives having substituted amino group by reacting p-phenylenediamine with propyleneoxide obtained in Synthesis Examples 1 to 9 was dissolved in the same buffer to prepare a 5.0×10^-3 M solution.
Each of these solutions was mixed in 0.1M phosphate buffer (pH 6.0) containing 0.1M NaCl in the following mixing ratio just before the measurement to prepare solutions of the following compositions A and B, and current was measured continuously in the presence (composition A) or absence (composition B) of GOD.
Using the same apparatus of Test Example 2, electric current was measured in the presence (composition A) or absence (composition B) of GOD for 10 minutes under application of potential of +300 mV (vs Ag/AgCl) to the working electrode.

hCG = assay: Measurement of hCG in whole blood with specific binding assay device (MEDIA method), freeze-dried electron mediator member; parameters: species or system human; details: hCG 0 vs 1,000 IU/l whole blood, -150 mV
Method: The specific binding assay device shown in FIGS. 2 and 3 was constructed, and concentration of hCG in samples was measured using the device. The HRPO-HM81 obtained in the above step (1) was diluted with a phosphate buffer (pH 6.0) containing 5% normal rabbit serum (NRS), 10% saccharose and 0.1M NaCl to prepare a solution having a peroxidase activity of 0.63 U/ml. Next, 140 μl of the solution was spotted on a circular filter paper piece of 12 mm in diameter punched out from glass fiber filter paper (GA100, manufactured by Advantech Toyo) and then freeze-dried to obtain an HRPO-HM81 freeze-dry member to be used as the labeled antibody-impregnatedmember 14. The THEPD obtained in Synthesis Example 3 was dissolved in a phosphate buffer (pH 6.0) containing 0.1M NaCl to prepare a 5.0 mM solution. Next, 140 μl of the solution was spotted on a circular filter paper piece of 12 mm in diameter punched out from glass fiber filter paper (GA100, manufactured by Advantech Toyo) and then freeze-dried to obtain a THEPD freeze-dry member to be used as the electron mediator-impregnated member 16 of the present invention. The TEPD obtained in Synthesis Example 1 was dissolved in a phosphate buffer (pH 6.0) containing 1M NaCl to prepare a 5.0 mM solution. […]

[1] = Measurement of vapor pressures (gas flow method); format: physicochemical; details: for vapor pressure: gas flow method
Method: Measurement of vapor pressures of p-phenylenediamine(PPD), N,N,N',N'-tetramethyl-p-phenylenediamine (TMPD), TEPD, TCPD, THEPD and TDHPD
The PPD(manufactured by Wakoh Junyaku K.K), TMPD (manufactured by Tokyo Kasei K.K), further, TEPD, TCPD, THEPD and TDHPO obtained in the course of the procedures of Synthesis Examples 1 to 4 were checked for their vapor pressures.
Vapor densities (amount of evaporation/volume) of the solid samples (PPD, TMPD, TEPD, TCPD, THEPD and TDHPD) were measured by contacting each sample heated to a predetermined temperature with a stream of carrier gas (nitrogen) and saturating the sample with vapor, and vapor pressures of TEPD and THEPD were calculated from the data on an assumption that the vapor follows the law of ideal gas (gas flow method). The vapor density was calculated by measuring evaporation rate (loss rate) of each sample using an electric balance, and the carrier gas flow rate using a flow meter.
The vapor pressure was calculated from the vapor density based on the following formula.
In the above formula, P represents vapor pressure (mmHg), k represents evaporation rate (mg/min), v represents carrier gas flow rate (ml/min), k/v represents vapor density (mg/ml), M represents molecular weight of each sample, π represents pressure of the system (mmHg) and V represents molar volume of carrier gas (l/mol).

T1 sequence (P13006 17-605): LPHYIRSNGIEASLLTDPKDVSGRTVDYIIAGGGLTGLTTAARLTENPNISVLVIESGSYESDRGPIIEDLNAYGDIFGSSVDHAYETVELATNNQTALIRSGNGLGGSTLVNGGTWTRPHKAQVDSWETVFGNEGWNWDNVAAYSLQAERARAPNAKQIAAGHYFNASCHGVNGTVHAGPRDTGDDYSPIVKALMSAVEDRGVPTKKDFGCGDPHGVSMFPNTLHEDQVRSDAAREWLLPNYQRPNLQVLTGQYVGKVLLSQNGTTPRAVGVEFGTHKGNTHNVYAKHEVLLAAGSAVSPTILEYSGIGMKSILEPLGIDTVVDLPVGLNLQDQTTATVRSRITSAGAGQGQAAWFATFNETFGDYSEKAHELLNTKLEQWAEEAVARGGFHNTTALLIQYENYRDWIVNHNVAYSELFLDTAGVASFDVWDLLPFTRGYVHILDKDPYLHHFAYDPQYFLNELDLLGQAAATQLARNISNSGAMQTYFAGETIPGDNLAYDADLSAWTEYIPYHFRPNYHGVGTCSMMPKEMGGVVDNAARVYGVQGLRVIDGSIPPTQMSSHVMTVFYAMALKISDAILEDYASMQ

Row | SMILES | function as electron mediator between GOD and the electrode (Glucose oxidase (GOD)) | electric current response to hCG concentration (hCG) | vapor pressure ([1]; at 25° C.) | vapor pressure lower than that of TEPD ([1]; at 25° C.) | property in drying (freeze-drying, vacuum drying, air-drying) and stability of dried states ([1]; compared with PPD, TMPD and TEPD, concluded from vapor pressures)
1 | CCN(CC)c1ccc(N(CC)CC)cc1.Cl.Cl [TEPD, N,N,N',N'-tetraethyl-p-phenylenediamine dihydrochloride, reference compound] | function as a reversible electron mediator between GOD and the electrode | the electric current did not increase in response to the concentration of hCG | 4.2×10^-4 mmHg |  | 
2 | Cl.Cl.OCCN(CCO)c1ccc(N(CCO)CCO)cc1 [THEPD, N,N,N',N'-tetrakis-(2'-hydroxyethyl)-p-phenylenediamine dihydrochloride] | function as a reversible electron mediator between GOD and the electrode | the reduction current became high in response to the concentration of hCG | 1.3×10^-6 mmHg | about 300 times | superior to those of PPD, TMPD and TEPD
